These results are taken from PMC4481117 (Molecular Pain, 2015).

Assay [1] has as its system Mac-1 (Mac-1-HEK293 cells). Kind of assay: Inhibition of adhesion of Mac-1-HEK293 cells to Dyn A. Conditions: 2 μM Dyn A coating; for Inhibition of adhesion to Dyn A in combination with NIF (in words): glycosaminoglycan 10 μg/ml with NIF; for Inhibition of adhesion to Dyn A (in words): wells preincubated with glycosaminoglycan 10 μg/ml, 20 min, alone. It counts as cell-based, Human. Here is the method:
(§1) For testing the role of glucosaminoglycans in cell adhesion, dynorphin A-coated wells were preincubated with 100 μl of 10 μg/ml of chondroitin sulfate A, chondroitin sulfate B and heparin. Aliquots (5x10^4cells) were added to the wells coated with 2 μM dynorphin A and adhesion was performed as described in A. Adhesion in the absence of Mac-1 inhibitors and glucosaminoglycans was assigned a value of 100 %. The data shown are the means ± S.E. from four separate experiments each with triplicate measurements. d , microtiter plate wells were coated with different concentrations of dynorphin B and adhesion of Mac-1-expressing and wild-type HEK293 cells was determined as described in A. The data shown are means of triplicate determinations, and error bars represent S.E. The figure is representative of 5 experiments. e. calcein-labeled Mac-1-HEK293 cells were preincubated without or with 10 μg/ml of mAb 44a and heparin, added to the wells coated with 20 μM of dynorphin B and adhesion was performed as described in A. Adhesion in the absence of inhibitors was assigned a value of 100 %.
(§2) Adhesion assays were performed essentially as described previously. […] Cells were labeled with 10 μM calcein for 30 min at 37 °C and washed twice with Hanks’ Balanced salt solution (HBSS) containing 0.1 % BSA. Aliquots (100 μl) of labeled cells (5x10^5/ml) were added to each well and allowed to adhere for 30 min at 37 °C. The non-adherent cells were removed by two washes with PBS. Fluorescence was measured in a CytoFluorII fluorescence plate reader (Perceptive Biosystems, Framingham, MA). In inhibition experiments, cells were mixed with different concentrations of peptides, NIF or mAbs for 20 min at 22 °C before they were added to the wells coated with adhesive substrates. In a separate set of experiments, after coating plates with dynorphins and post-coating with 1 % PVP, plates were incubated with 100 μl of 10 μg/ml chondroitin sulfate A, chondroitin sulfate B, or heparin for 20 min at 22 °C. After aspirating the solution, labeled cells were added and cell adhesion was analyzed as above.

The subject of another assay is αMI-domain. Kind of assay: αMI-domain binding to cellulose-bound peptide libraries (SPOT, autoradiography, densitometry). Particulars: for Densitometry, % (αMI-domain binding): 9-mer peptides, 3-residue offset, N-acetylated, cellulose-bound via (β-Ala)2, 10 μg/ml 125I-labeled αMI-domain (active form), TBS 1 mM MgCl2, percentage of binding to peptide #1 (100 %); for αMI-domain binding (in words): cellulose-bound 9-mer libraries, 125I-labeled αMI-domain. As for the experimental part: Fig. 1 Screening of the peptide library spanning the sequence of dynorphin AB for αMI-domain binding. a, Amino acid sequence of dynorphin AB (residues 1–32). b, Cellulose membrane with the assembled peptide library consisting of 9-mer peptides with three-residue offset was incubated with ^125I-labeled αMI-domain and subjected to autoradiography followed by densitometry. The αMI-domain binding was observed as dark spots. Spot #10 contains only the β-Ala spacer. The αMI-domain binding was expressed as a percentage of binding to peptide #1, which was assigned a value 100 % and is shown as the numbers on the right of each sequence. The peptide energies that serve as a measure of probability each peptide can interact with the αMI-domain were calculated as described TEXT PRINTED IN THE PICTURE: (B) 1 ([…]): Densitometry, %: 100; Energy, J/mole: -13824 | (B) 2 ([…]): Densitometry, %: 100; Energy, J/mole: -17197 | (B) 3 ([…]): Densitometry, %: 75; Energy, J/mole: -9119 | (B) 4 ([…]): Densitometry, %: 60; Energy, J/mole: -650 | (B) 5 ([…]): Densitometry, %: 40; Energy, J/mole: -2880 | (B) 6 ([…]): Densitometry, %: 90; Energy, J/mole: -5355 | (B) 7 ([…]): Densitometry, %: 90; Energy, J/mole: -12541 | (B) 8 ([…]): Densitometry, %: 100; Energy, J/mole: -12344 | (B) 9 ([…]): Densitometry, %: 100; Energy, J/mole: -9738 | (B) 10 (β-alanine control): Densitometry, %: 0 | (B) Control peptide ([…]): Energy, J/mole: 11107
Peptide libraries derived from dynorphin AB assembled on cellulose membrane supports were prepared by parallel spot synthesis as previously described. Peptides were COOH-terminally attached to cellulose via a (β-Ala)2 spacer and were acetylated N-terminally. The membrane-bound peptides were tested for their ability to bind the αMI-domain according to a previously described procedure. In brief, the membrane was blocked with 1 % BSA and then incubated with 10 μg/ml of ^125I-labeled αMI-domain in TBS containing 1 mM MgCl2. After washing, the membrane was dried and the αMI-domain binding was visualized by autoradiography.
Additional file 1: Figure S1. Identification of residues in dynorphin A critical for α MI-domain binding. The dynorphin AB-based substitutional peptide libraries with single, double or triple mutations of basic residues were prepared by SPOT synthesis as described in Experimental Procedures. Mutated amino acid residues are shown in red. The membranes with synthesized peptide libraries were incubated with ^125I-labeled α MI-domain and subjected to autoradiography. The α MI-domain binding was analyzed by densitometry and expressed in arbitrary units with the strongest binding to wild-type peptides assigning a value of 4+. The peptides that partially lost their ability to bind the α MI-domain were grouped according to their activity and marked as 3+, 2+ and +. The peptides that lost their ability to bind the α MI-domain are marked with “NB “.

For the next assay, the system named is IC-21 macrophages. Kind of assay: Phagocytosis of Dyn A-coated latex beads by IC-21 macrophages. It counts as cell-based, murine. Conditions: heparin 20 μg/ml, naloxone 10 μM, rat IgG2b isotype control. As for the experimental part: Fig. 8 Effect of Dyn A on phagocytosis of latex beads. a, Fluorescent latex beads (1x10^9/ml) were preincubated with Dyn A (50 μg/ml) for 40 min at 37 °C. Soluble peptide was removed from the beads by high-speed centrifugation. Peptide-coated beads were incubated with adherent IC-21 macrophages for 30 min at 37 °C. Nonphagocytosed beads were removed from cells by washing with PBS. […] Rat IgG2b was used as an isotype control for anti-αM mAb M1/70. Phagocytosis was quantified for five random fields per well using a 20x objective. Phagocytosis of Dyn A-treated beads was assigned as 100 %.
A suspension of fluorescent […] latex beads (1x10^9/ml) (FluoSpheres sulfate microspheres, Life Technologies, Carlsbad, CA) was incubated with 50 μg/ml of Dyn A for 40 min at 37 °C, then unbound peptide was removed by centrifugation. IC-21 murine macrophages (5 × 10^5/ml) were adhered on the cover glass for 30 min and 3 × 10^6 of peptide-coated beads were added to adherent IC-21 cells. After incubating for 30 minutes at 37 °C, nonphagocytosed beads were separated from macrophages by washing with 3x1 ml PBS and phagocytosed beads were counted in the presence of trypan blue. […] The ratio of beads per macrophage was quantified by taking photographs of five fields for each well using a Leica DM4000 B microscope (Leica Microsystems, Buffalo Grove, IL) with a 20 × objective.

The next assay concerns Mac-1. Kind of assay: Mac-1 mediated cell adhesion, effect of naloxone. It counts as cell-based. Particulars: control experiments, not shown.
The test system of the next assay is U937 monocytic cells. Kind of assay: Chemotaxis migration assay of U937 cells to Dyn A agarose gel. It counts as cell-based, human. As for the experimental part:
Fig. 7 Chemotactic response of U937 cells to Dyn A. a, schematic representation of the experimental format. U937 cells (5x10^4) were placed in the center of the coverslip between two agar gels, one containing Dyn A and control gel without Dyn A. After 2 h at 37 °C, a series of photographs was taken in the direction of migration at 1-mm intervals to count the number of migrating cells. b , representative images after 2 h of migration show the cells within the starting point (marked with a cross; right panels) and at the border of the Dyn A-containing agar drop (left panels). […] Two bottom panels show the experimental condition with no Dyn A gradient. c, quantification of U937 cells migrated from the initial point after 2 h based on the results shown in A (right panel). Migration of control untreated U937 cells that completely migrated from the initial point of cell placement was assigned a value of 100 %. In contrast, there was no cell migration without a Dyn A gradient (0 %). […] A representative experiment is shown. d, distribution of U937 cells between two gels: Dyn A-containing (on the left) and without Dyn A (on the right). “0” on abscissa corresponds to the initial point where cells were loaded and the numbers show the distance that cells migrated in both directions from the starting point. All cells in each of 10 consecutive fields towards the Dyn A-containing and empty gels were counted and plotted as a distance from the starting point
Chemotaxis assays using U937 monocytic cells were performed on 22 × 22 mm cover slips. 1 % agarose (Life Technologies, Carlsbad, CA) was dissolved in HBSS by heating. After cooling, the agarose solution was mixed with Dyn A to obtain a final concentration of 10 μM. A 10 μl drop of warm agarose solution containing Dyn A was placed at one corner of the cover glass at ~1.5 mm from the edge. A control agarose drop was placed diagonally at the opposite corner of the cover glass. Agarose was allowed to solidify for 5 min, and the cover glasses were placed into wells of the 6-well plate filled with 5 ml of RPMI 1640 + 10 % FBS. A 10-μl aliquot of U937 cells (5x10^4) was loaded in the center of the cover glass and the plate was incubated for 2 h at 37 °C in a humidified atmosphere containing 5 % CO2. In this experimental format, the cells sediment approximately 5 min after loading, forming an ~4 mm circle, and begin to migrate towards the Dyn A-containing agarose drop. […] The photographs were taken at 1-mm intervals in the direction of cell migration towards the dynorphin-containing or control agarose drops without dynorphin A. The number of cells at the starting point and in each of 10 consecutive fields towards the dynorphin-containing and empty gels were counted and plotted as a distance from the starting point.

The target in assay [2] is T1, Mac-1 (Mac-1-expressing HEK293 cells) (Homo sapiens, UniProt P05107+P11215).
T1 construct: expressed in transfected cells
Kind of assay: Adhesion of Mac-1-HEK293 cells to immobilized peptide. Conditions: coated wells, calcein-labeled cells, 30 min at 37 °C. It counts as cell-based. As for the experimental part:
as §1, §2

The test system of assay [3] is Mac-1 (Mac-1-HEK293 cells). Kind of assay: Inhibition of adhesion of Mac-1-HEK293 cells to fibrinogen by soluble peptides. Particulars: soluble peptide, 2.5 μg/mL fibrinogen coating. It counts as cell-based, Human. As for the experimental part: Fig. 4 Effect of soluble Dyn A on Mac-1-mediated cell adhesion to fibrinogen. a (left ordinate), calcein-labeled Mac-1-HEK293 cells were preincubated with different concentrations of dynorphin A (black bar), dynorphin B (open bar) or control peptide (gray bar) for […] at 22 °C and added to the wells of microtiter plates coated with 2.5 μg/mL fibrinogen. Cells were allowed to adhere for 30 minutes at 37 °C before removing nonadherent cells. […] Data are expressed as a percentage of total cell fluorescence
as §2, with “In a separate set of experiments, after coating plates with dynorphins and post-coating with 1 % PVP, plates were incubated with 100 μl of 10 μg/ml chondroitin sulfate A, chondroitin sulfate B, or heparin for 20 min at 22 °C.” left out

Take chondroitin sulfate A: in assay [1], the “Inhibition of adhesion to Dyn A in combination with NIF (in words)” value was “not exert a statistically significant inhibitory effect” and the “Inhibition of adhesion to Dyn A (in words)” value was “not exert a statistically significant inhibitory effect”.

In the case of RIRPKLKWD, in the assay on αMI-domain, the “Densitometry, % (αMI-domain binding)” value was found to be 75% and the “αMI-domain binding (in words)” value was “weakened their αMI-domain binding activity”.

As for chondroitin sulfate B, in assay [1], the “Inhibition of adhesion to Dyn A in combination with NIF (in words)” value is “not exert a statistically significant inhibitory effect” and the “Inhibition of adhesion to Dyn A (in words)” value was “not exert a statistically significant inhibitory effect”.

For NQKRYGGFL, the “Densitometry, % (αMI-domain binding)” value in the assay on αMI-domain turned out to be 90%.

With FLRRIRPKL, in the assay with αMI-domain, the “Densitometry, % (αMI-domain binding)” value amounted to 100% and the “αMI-domain binding (in words)” value was “highest affinities”.

On to RRQFKVVGG, for which the “Densitometry, % (αMI-domain binding)” value with αMI-domain is listed as 100%.

As to heparin, the “Inhibition of adhesion to Dyn A (in words)” value in assay [1] is “slight inhibition”. Moreover, the “Effect on Dyn A-mediated phagocytosis (in words)” value in the assay with IC-21 macrophages is recorded as “did not decrease the number of phagocytosed beads”.

For the molecule PKLKWDNQK, in the assay on αMI-domain, the “Densitometry, % (αMI-domain binding)” value stood at 60% and the “αMI-domain binding (in words)” value is “weakened their αMI-domain binding activity”.

Regarding RYGGFLRRQ, the “Densitometry, % (αMI-domain binding)” value in the assay on αMI-domain was 90%.

On to `C=CCN1CC[C@]23c4c5ccc(O)c4O[C@H]2C(=O)CC[C@@]3(O)[C@H]1C5` [naloxone], for which the “Effect on Mac-1 mediated cell adhesion” value in the assay on Mac-1 is recorded as “does not affect Mac-1 mediated cell adhesion”. In addition, the “Mean distance travelled by inhibitor-treated cells” value with U937 monocytic cells (Dyn A gradient, 2 h, mAb 44a 20 μg/ml or naloxone 10 μM) is given as ~ 5 mm. In addition, in the assay on U937 monocytic cells (mAb 44a 20 μg/ml or naloxone 10 μM, 30 min preincubation, 2 h at 37 °C, representative experiment), the “Migration from initial point blocked” value was ~ 20%. Further, the “Arrival of inhibitor-treated cells at Dyn A-containing drop” value in the assay with U937 monocytic cells (mAb 44a 20 μg/ml or naloxone 10 μM, 2 h) is listed as “only a few cells arrived”. The “Cells remaining at the start” value with U937 monocytic cells (naloxone 10 μM, Dyn A gradient, 2 h) is given as ~ 20%. Further, the “Effect on Dyn A-mediated phagocytosis (in words)” value in the assay on IC-21 macrophages was “did not decrease the number of phagocytosed beads”.

With “DIDPKLKWD [control peptide, purchased from AnaSpec; also mutant in substitutional library]”, the “Adhesion of Mac-1-HEK293 cells (in words)” value in assay [2] was “failed to support adhesion”. For the same molecule, the “Inhibition of adhesion to fibrinogen (in words)” value in assay [3] is given as “only slightly inhibitory”.

Take YGGFLRRIR: in the assay on αMI-domain, the “Densitometry, % (αMI-domain binding)” value worked out at 100% and the “αMI-domain binding (in words)” value is reported as “highest affinities”.

GFLRRQFKV: in the assay with αMI-domain, the “Densitometry, % (αMI-domain binding)” value is on record as 100%.

Turning to KWDNQKRYG, in the assay on αMI-domain, the “Densitometry, % (αMI-domain binding)” value was 40% and the “αMI-domain binding (in words)” value is “weakened their αMI-domain binding activity”.
